{"source": "patent US20100137449A1", "about": "“SUBSTITUTED 1,3-CYCLOPENTADIONE MULTI-TARGET PROTEIN KINASE MODULATORS OF CANCER, ANGIOGENESIS AND THE INFLAMMATORY PATHWAYS ASSOCIATED THEREWITH” (METAPROTEOMICS, LLC, priority 2007, published 2010)", "assay_in_all_cases": "KinaseProfiler Assay", "key": {"cKit(V560G)(h)": {"biological_target": "cKit(V560G)(h) (Homo sapiens, UniProt P10721, V560G)", "sequence (P10721 26-976 V560G)": "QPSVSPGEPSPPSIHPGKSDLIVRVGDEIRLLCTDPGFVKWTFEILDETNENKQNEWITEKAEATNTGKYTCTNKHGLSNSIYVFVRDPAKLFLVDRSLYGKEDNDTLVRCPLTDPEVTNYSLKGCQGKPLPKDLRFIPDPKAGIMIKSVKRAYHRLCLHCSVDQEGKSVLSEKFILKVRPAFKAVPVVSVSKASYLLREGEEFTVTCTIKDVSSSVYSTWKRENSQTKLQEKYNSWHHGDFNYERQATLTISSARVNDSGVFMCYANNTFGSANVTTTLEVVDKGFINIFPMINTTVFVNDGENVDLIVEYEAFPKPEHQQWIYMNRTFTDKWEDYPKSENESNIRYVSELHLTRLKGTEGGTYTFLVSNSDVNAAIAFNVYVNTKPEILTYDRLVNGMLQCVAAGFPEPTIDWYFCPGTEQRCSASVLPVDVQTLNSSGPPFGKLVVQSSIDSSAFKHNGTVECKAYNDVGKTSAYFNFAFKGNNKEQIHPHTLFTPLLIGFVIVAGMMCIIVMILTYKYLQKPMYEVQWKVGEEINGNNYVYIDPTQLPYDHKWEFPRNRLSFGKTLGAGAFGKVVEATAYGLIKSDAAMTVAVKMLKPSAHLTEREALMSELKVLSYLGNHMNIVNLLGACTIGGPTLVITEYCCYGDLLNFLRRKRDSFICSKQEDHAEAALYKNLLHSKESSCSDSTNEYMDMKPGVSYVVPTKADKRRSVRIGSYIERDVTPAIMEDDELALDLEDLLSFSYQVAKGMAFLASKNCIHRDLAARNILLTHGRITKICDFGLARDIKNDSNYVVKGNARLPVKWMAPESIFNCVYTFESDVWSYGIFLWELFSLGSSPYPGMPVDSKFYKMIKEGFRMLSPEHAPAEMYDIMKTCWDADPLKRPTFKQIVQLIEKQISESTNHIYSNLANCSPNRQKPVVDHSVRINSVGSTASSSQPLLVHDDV"}, "PI 3-Kinaseδ(h)": {"biological_target": "PI 3-Kinaseδ(h) (Homo sapiens, UniProt O00329)"}, "Tie2(h)": {"biological_target": "Tie2(h) (Homo sapiens, UniProt Q02763)"}, "PDGFRβ(h)": {"biological_target": "PDGFRβ(h) (Homo sapiens, UniProt P09619)", "sequence (P09619 33-1106)": "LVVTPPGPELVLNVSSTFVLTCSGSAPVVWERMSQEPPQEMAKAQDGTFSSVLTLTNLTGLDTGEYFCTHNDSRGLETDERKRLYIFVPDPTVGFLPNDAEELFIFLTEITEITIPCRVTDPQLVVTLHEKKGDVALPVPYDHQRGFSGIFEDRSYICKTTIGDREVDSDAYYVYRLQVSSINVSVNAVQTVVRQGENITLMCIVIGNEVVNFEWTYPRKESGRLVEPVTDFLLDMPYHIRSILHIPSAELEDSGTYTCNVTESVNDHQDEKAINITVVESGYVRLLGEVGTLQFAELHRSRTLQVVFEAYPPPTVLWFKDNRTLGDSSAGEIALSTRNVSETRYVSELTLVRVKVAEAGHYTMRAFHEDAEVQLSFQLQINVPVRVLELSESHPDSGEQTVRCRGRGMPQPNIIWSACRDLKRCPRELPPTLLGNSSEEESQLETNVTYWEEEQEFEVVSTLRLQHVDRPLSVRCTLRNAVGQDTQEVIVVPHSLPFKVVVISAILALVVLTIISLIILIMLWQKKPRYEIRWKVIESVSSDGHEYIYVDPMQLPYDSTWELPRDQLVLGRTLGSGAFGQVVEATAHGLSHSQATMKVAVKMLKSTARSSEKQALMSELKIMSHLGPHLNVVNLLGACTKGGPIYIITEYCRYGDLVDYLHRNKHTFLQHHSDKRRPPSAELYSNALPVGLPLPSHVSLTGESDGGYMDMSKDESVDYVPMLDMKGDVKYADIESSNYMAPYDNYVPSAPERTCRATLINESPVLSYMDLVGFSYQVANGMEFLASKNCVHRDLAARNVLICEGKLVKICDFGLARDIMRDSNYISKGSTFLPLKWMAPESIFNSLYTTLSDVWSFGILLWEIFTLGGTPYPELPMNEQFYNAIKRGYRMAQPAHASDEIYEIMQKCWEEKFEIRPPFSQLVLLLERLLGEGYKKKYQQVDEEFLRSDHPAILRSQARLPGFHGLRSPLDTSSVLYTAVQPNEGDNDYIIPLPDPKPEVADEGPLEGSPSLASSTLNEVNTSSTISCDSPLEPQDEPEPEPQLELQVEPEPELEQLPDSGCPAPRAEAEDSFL"}, "Lyn(m)": {"biological_target": "Lyn(m) (Mus musculus, UniProt P25911)", "sequence (P25911 whole entry)": "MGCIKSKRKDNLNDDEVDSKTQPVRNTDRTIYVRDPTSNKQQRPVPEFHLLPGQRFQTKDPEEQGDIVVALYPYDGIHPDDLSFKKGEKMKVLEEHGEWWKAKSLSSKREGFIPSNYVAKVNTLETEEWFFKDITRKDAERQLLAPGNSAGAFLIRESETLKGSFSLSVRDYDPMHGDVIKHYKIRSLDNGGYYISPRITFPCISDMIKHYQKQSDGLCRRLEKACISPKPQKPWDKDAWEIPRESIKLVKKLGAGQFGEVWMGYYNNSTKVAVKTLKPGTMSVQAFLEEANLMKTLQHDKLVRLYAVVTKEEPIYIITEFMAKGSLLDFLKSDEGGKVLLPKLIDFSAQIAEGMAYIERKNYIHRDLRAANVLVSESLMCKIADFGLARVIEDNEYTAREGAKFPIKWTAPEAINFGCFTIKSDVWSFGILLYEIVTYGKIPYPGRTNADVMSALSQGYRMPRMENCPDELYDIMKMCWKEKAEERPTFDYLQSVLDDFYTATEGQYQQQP"}, "PRAK(h)": {"biological_target": "T1, PRAK(h) (Homo sapiens, UniProt Q8IW41)", "T1 sequence (Q8IW41 1-473)": "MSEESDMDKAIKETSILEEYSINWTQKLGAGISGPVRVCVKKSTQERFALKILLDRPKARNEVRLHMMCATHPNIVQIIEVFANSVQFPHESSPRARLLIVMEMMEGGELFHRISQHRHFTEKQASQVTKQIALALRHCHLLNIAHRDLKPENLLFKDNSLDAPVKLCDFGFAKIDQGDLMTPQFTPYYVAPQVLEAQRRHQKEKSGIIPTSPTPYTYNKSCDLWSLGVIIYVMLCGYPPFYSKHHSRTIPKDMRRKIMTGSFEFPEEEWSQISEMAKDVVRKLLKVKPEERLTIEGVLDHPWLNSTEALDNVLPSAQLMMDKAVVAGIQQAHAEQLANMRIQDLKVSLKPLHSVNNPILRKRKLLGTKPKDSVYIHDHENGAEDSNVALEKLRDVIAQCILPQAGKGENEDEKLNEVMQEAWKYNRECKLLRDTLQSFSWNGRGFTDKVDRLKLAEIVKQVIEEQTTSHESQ"}, "Pim-3(h)": {"biological_target": "Pim-3(h) (Homo sapiens, UniProt Q86V86)"}, "MRCKβ(h)": {"biological_target": "MRCKβ(h) (Homo sapiens, UniProt Q9Y5S2)", "sequence (Q9Y5S2 whole entry)": "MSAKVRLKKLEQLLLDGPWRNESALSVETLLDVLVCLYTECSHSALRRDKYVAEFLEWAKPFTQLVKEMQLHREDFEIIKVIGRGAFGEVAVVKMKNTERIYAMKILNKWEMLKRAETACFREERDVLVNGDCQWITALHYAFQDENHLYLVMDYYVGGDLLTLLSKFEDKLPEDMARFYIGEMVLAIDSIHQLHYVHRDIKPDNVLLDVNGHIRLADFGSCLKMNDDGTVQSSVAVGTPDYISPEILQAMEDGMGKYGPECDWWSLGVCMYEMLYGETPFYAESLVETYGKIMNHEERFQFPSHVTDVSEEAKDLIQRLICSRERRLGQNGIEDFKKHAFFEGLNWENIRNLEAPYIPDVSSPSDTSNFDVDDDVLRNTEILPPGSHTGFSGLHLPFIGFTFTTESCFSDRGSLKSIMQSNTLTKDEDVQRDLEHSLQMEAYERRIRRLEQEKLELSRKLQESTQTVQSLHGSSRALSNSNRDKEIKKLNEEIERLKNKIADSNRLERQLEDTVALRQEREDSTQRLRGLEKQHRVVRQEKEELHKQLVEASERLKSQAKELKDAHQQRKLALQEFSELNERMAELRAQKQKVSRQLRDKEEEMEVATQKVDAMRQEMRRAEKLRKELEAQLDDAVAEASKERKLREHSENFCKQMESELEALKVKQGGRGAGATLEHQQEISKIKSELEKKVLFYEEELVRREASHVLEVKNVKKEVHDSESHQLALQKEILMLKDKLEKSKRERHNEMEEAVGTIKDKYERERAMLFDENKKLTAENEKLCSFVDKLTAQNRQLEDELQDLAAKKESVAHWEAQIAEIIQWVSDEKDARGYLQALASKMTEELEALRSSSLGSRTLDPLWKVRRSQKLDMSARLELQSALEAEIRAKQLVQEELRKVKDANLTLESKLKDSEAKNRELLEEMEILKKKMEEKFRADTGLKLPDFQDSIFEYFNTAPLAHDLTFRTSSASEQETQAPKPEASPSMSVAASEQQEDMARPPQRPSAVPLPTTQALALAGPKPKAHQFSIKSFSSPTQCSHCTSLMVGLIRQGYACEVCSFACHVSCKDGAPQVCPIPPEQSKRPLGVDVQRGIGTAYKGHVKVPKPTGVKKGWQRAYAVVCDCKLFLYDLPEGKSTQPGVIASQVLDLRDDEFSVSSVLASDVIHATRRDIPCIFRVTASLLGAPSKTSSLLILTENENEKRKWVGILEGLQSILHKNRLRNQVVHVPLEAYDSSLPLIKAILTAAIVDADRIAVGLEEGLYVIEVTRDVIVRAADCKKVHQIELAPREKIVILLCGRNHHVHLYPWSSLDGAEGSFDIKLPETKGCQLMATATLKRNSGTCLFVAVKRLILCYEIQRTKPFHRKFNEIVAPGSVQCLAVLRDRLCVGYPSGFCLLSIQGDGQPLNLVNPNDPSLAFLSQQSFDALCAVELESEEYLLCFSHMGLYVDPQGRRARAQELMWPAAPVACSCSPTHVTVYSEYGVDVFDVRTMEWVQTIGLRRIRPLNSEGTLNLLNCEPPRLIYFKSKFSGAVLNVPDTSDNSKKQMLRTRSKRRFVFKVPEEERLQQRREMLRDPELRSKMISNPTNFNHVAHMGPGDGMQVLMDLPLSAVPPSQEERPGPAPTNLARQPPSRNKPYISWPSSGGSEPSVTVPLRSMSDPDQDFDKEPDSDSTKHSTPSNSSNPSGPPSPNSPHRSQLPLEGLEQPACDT"}, "P70S6K(h)": {"biological_target": "P70S6K(h) (Homo sapiens, UniProt P23443)"}, "Fgr(h)": {"biological_target": "Fgr(h) (Homo sapiens, UniProt P09769)", "sequence (P09769 whole entry)": "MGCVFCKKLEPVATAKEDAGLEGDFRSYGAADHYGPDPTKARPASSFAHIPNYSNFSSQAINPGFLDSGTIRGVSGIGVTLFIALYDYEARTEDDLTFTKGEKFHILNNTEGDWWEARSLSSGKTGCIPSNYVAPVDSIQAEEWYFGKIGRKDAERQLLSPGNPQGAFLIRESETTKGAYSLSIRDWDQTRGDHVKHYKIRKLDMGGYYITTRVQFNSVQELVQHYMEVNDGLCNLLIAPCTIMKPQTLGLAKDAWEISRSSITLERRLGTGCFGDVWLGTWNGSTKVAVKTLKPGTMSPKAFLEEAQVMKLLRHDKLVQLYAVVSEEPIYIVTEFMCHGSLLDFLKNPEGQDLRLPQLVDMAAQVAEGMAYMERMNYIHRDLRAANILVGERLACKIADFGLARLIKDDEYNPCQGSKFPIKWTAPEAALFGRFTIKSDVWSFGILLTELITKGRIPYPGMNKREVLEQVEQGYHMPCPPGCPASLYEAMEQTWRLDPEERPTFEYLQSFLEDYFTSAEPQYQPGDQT"}, "Abl(T315I)(h)": {"biological_target": "Abl(T315I)(h) (Homo sapiens, UniProt P00519, T315I)"}}, "data": [{"molecule": "CC(C)CCC(=O)[C@]1(O)C(O)=C(C(=O)C(C)C)C(=O)[C@H]1CCC(C)C", "note": "[TH2, tetrahydroiso-cohumulone]", "values": [{"measurement": "kinase inhibition", "setting": "cKit(V560G)(h); 1 μg/ml", "value": "112% of control"}, {"measurement": "kinase inhibition", "setting": "cKit(V560G)(h); 5 μg/ml", "value": "114% of control"}, {"measurement": "kinase inhibition", "setting": "cKit(V560G)(h); 25 μg/ml", "value": "105% of control"}, {"measurement": "kinase inhibition", "setting": "cKit(V560G)(h); 50 μg/ml", "value": "90% of control"}, {"measurement": "kinase inhibition", "setting": "cKit(V560G)(h); 100 μg/ml", "value": "78% of control"}, {"measurement": "kinase inhibition", "setting": "PI 3-Kinaseδ(h); 1 μg/ml", "value": "97% of control"}, {"measurement": "kinase inhibition", "setting": "PI 3-Kinaseδ(h); 5 μg/ml", "value": "89% of control"}, {"measurement": "kinase inhibition", "setting": "PI 3-Kinaseδ(h); 25 μg/ml", "value": "62% of control"}, {"measurement": "kinase inhibition", "setting": "PI 3-Kinaseδ(h); 50 μg/ml", "value": "18% of control"}, {"measurement": "kinase inhibition", "setting": "PI 3-Kinaseδ(h); 100 μg/ml", "value": "52% of control"}, {"measurement": "kinase inhibition", "setting": "Tie2(h); 1 μg/ml", "value": "110% of control"}, {"measurement": "kinase inhibition", "setting": "Tie2(h); 5 μg/ml", "value": "96% of control"}, {"measurement": "kinase inhibition", "setting": "Tie2(h); 25 μg/ml", "value": "74% of control"}, {"measurement": "kinase inhibition", "setting": "Tie2(h); 50 μg/ml", "value": "80% of control"}, {"measurement": "kinase inhibition", "setting": "Tie2(h); 100 μg/ml", "value": "78% of control"}, {"measurement": "kinase inhibition", "setting": "PDGFRβ(h); 1 μg/ml", "value": "111% of control"}, {"measurement": "kinase inhibition", "setting": "PDGFRβ(h); 5 μg/ml", "value": "110% of control"}, {"measurement": "kinase inhibition", "setting": "PDGFRβ(h); 25 μg/ml", "value": "53% of control"}, {"measurement": "kinase inhibition", "setting": "PDGFRβ(h); 50 μg/ml", "value": "50% of control"}, {"measurement": "kinase inhibition", "setting": "PDGFRβ(h); 100 μg/ml", "value": "44% of control"}, {"measurement": "kinase inhibition", "setting": "Lyn(m); 1 μg/ml", "value": "116% of control"}, {"measurement": "kinase inhibition", "setting": "Lyn(m); 5 μg/ml", "value": "110% of control"}, {"measurement": "kinase inhibition", "setting": "Lyn(m); 25 μg/ml", "value": "76% of control"}, {"measurement": "kinase inhibition", "setting": "Lyn(m); 50 μg/ml", "value": "58% of control"}, {"measurement": "kinase inhibition", "setting": "Lyn(m); 100 μg/ml", "value": "68% of control"}, {"measurement": "kinase inhibition", "setting": "PRAK(h); 1 μg/ml", "value": "66% of control"}, {"measurement": "kinase inhibition", "setting": "PRAK(h); 5 μg/ml", "value": "45% of control"}, {"measurement": "kinase inhibition", "setting": "PRAK(h); 25 μg/ml", "value": "19% of control"}, {"measurement": "kinase inhibition", "setting": "PRAK(h); 50 μg/ml", "value": "24% of control"}, {"measurement": "kinase inhibition", "setting": "PRAK(h); 100 μg/ml", "value": "19% of control"}, {"measurement": "kinase inhibition", "setting": "Pim-3(h); 1 μg/ml", "value": "104% of control"}, {"measurement": "kinase inhibition", "setting": "Pim-3(h); 5 μg/ml", "value": "104% of control"}, {"measurement": "kinase inhibition", "setting": "Pim-3(h); 25 μg/ml", "value": "72% of control"}, {"measurement": "kinase inhibition", "setting": "Pim-3(h); 50 μg/ml", "value": "70% of control"}, {"measurement": "kinase inhibition", "setting": "Pim-3(h); 100 μg/ml", "value": "64% of control"}, {"measurement": "kinase inhibition", "setting": "MRCKβ(h); 1 μg/ml", "value": "110% of control"}, {"measurement": "kinase inhibition", "setting": "MRCKβ(h); 5 μg/ml", "value": "114% of control"}, {"measurement": "kinase inhibition", "setting": "MRCKβ(h); 25 μg/ml", "value": "109% of control"}, {"measurement": "kinase inhibition", "setting": "MRCKβ(h); 50 μg/ml", "value": "104% of control"}, {"measurement": "kinase inhibition", "setting": "MRCKβ(h); 100 μg/ml", "value": "99% of control"}, {"measurement": "kinase inhibition", "setting": "P70S6K(h); 1 μg/ml", "value": "108% of control"}, {"measurement": "kinase inhibition", "setting": "P70S6K(h); 5 μg/ml", "value": "108% of control"}, {"measurement": "kinase inhibition", "setting": "P70S6K(h); 25 μg/ml", "value": "108% of control"}, {"measurement": "kinase inhibition", "setting": "P70S6K(h); 50 μg/ml", "value": "92% of control"}, {"measurement": "kinase inhibition", "setting": "P70S6K(h); 100 μg/ml", "value": "69% of control"}, {"measurement": "kinase inhibition", "setting": "Fgr(h); 1 μg/ml", "value": "95% of control"}, {"measurement": "kinase inhibition", "setting": "Fgr(h); 5 μg/ml", "value": "96% of control"}, {"measurement": "kinase inhibition", "setting": "Fgr(h); 25 μg/ml", "value": "112% of control"}, {"measurement": "kinase inhibition", "setting": "Fgr(h); 50 μg/ml", "value": "106% of control"}, {"measurement": "kinase inhibition", "setting": "Fgr(h); 100 μg/ml", "value": "86% of control"}, {"measurement": "kinase inhibition", "setting": "Abl(T315I)(h); 1 μg/ml", "value": "102% of control"}, {"measurement": "kinase inhibition", "setting": "Abl(T315I)(h); 5 μg/ml", "value": "98% of control"}, {"measurement": "kinase inhibition", "setting": "Abl(T315I)(h); 25 μg/ml", "value": "79% of control"}, {"measurement": "kinase inhibition", "setting": "Abl(T315I)(h); 50 μg/ml", "value": "68% of control"}, {"measurement": "kinase inhibition", "setting": "Abl(T315I)(h); 100 μg/ml", "value": "58% of control"}]}]}
